In this assay the target is T1, FAAH (Rattus norvegicus, UniProt P97612).
T1 construct: Preparation of Rat Brain Membranes Preparations (FAAH Enzyme Solution); from tissue; host or cells: rat cerebrum (brain membrane preparation)
T1 sequence (P97612 1-579): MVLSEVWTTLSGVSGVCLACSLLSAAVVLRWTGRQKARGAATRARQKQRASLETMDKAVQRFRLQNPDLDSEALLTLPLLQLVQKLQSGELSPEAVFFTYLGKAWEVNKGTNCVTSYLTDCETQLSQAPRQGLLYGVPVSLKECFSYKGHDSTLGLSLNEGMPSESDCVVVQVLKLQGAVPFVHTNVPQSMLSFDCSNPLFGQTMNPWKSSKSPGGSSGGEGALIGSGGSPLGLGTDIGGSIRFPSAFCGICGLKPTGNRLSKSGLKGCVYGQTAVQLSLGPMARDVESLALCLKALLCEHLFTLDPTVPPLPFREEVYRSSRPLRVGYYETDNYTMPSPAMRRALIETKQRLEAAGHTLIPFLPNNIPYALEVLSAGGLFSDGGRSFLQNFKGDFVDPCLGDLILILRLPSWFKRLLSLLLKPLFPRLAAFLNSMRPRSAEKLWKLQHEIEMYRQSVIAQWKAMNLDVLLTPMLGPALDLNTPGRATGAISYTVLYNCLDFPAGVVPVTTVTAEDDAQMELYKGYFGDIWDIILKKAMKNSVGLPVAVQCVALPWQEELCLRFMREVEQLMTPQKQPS
The assay can be described thus: Determination of FAAH inhibitory activity in rat (rat brain membrane preparations, [3H]-anandamide hydrolysis). Conditions: for inhibition at 0.1 µM: read-out: FAAH Inhibition, Inhibition Rate at 100 nM; for IC50: test substance 0.1 nM to 1 μM, read-out: FAAH Inhibition IC50. Type of assay: biochemical. The protocol:
Determination of FAAH Inhibitory Activity in Rat
The preparation of rat brain membranes preparations and the determination of FAAH inhibitory activity were carried out according to the Jonsson et al. method [Br. J. Pharmacol., 133, 1263 (2001)].
(1) Preparation of Rat Brain Membranes Preparations (FAAH Enzyme Solution)
The cerebrum was extracted from rats and was freeze-stored at −80° C. To the frozen cerebrum was added 4° C. enzyme homogenization buffer (20 mM HEPES-buffer pH 7.0, 1 mM MgCl2) and the mixture was homogenized using a homogenizer in ice and the homogenates were centrifuged (36,000×g for 20 minutes). After repeating operations of homogenization and centrifugation, the tissue pellets were re-suspended with 4° C. enzyme homogenization buffer. The re-suspensions were incubated at 37° C. for 15 minutes and were centrifuged (36,000×g for 20 minutes), and the resulting tissue membranes were then re-suspended with enzyme solution preparation buffer (50 mM Tris-HCl buffer pH 7.4, 1 mM EDTA, 3 mM MgCl2). The protein concentration in the resulting membrane preparations were determined according to a colorimetry method (BCA Protein Assay: Pierce Inc.) and the preparations were freeze-stored at −80° C. until used for assay.
(2) Screening of Substances for Inhibiting FAAH Activity
To the above membrane preparations (final concentration 100 μg/mL) were added a solution of test substances in DMSO (final concentration in DMSO 1%) and an assay buffer (for final preparation; 22 mM Tris-HCl (pH 7.6), 1.4 mM EDTA, 1.5% BSA, 0.6 mM MgCl2) and the resulting mixtures were preincubated at 37° C. for 10 minutes. Thereto was added a substrate solution (for final preparation; 2 nM [^3H]-Anandamide (American Radiolabeled Chemicals Inc.)+2 μM Anandamide (Sigma-Aldrich Co.)) (final assay volume of 200 μL) and the resulting mixtures were incubated at 37° C. for 10 minutes. Here in control experiment, DMSO was added instead of the solution of test substance in DMSO. Also in blank experiment, DMSO was added instead of the solution of test substance in DMSO and an enzyme solution preparation buffer was also added instead of the membrane preparations. After the incubation, thereto was added a 400 μL ice-cooled solution of chloroform and methanol (1:1 ratio by volume) and the resulting mixtures were stirred. An ethanolamine (ethanolamine-1-[^3H]) as a decomposed product was separated into an upper layer (water/methanol layer) by centrifugation (1,000×g for 10 minutes). The upper layer 200 μL was transferred into 96 well Deepwell Luma Plate-96 (PerkinElmer Inc.) and the radioactivity was measured by microplate scintillation counter (TopCount NXT™: […].). The substances showing a lower measured value compared to those of control were selected as the compound having a FAAH inhibitory activity.
(3) Determination of IC50 Value
The test substances were prepared such that the final concentration of the compounds is within the range of 0.1 nM to 1 μM and were then examined on the effect on FAAH activity according to the above-mentioned protocol.

[1] abbreviates: rat brain membrane preparations, 100 nM test substance.
The mark [2] stands for this setting: rat brain membrane preparations.

Each structure is given as a SMILES string. Like-named read-outs stand apart in the source and are kept apart here. Bounds are passed on as bounds.

`CCN(CC)C(=O)n1c(=O)n(C)c2nc(-c3ccccc3)ncc21` [Example 40]: the inhibition at 0.1 µM under setting [1] is 20%. For the same compound, the IC50 under setting [2] was over 100 nM.

`Cn1c(=O)n(C(=O)N2CCCCCC2)c2cnc(-c3ccccc3)nc21` [Example 41]: the inhibition at 0.1 µM under setting [1] is 33%. Besides, under setting [2], the IC50 is over 100 nM.

With `CN(C(=O)n1c(=O)n(C)c2nc(-c3ccccc3)ncc21)C1CCCCC1` [Example 43], under setting [1], the inhibition at 0.1 µM worked out at 20%. The IC50 under setting [2] was over 100 nM.

Consider `Cn1c(=O)n(C(=O)N2CCCC2Cc2ccccc2)c2cnc(-c3ccccc3)nc21` (stereo not drawn) [Example 44], for which the inhibition at 1 µM (rat brain membrane preparations, 1000 nM test substance (stated in the cell), read-out: FAAH Inhibition, Inhibition Rate (1000 nM)) was found to be 30%. Further, the IC50 under setting [2] is over 100 nM.

Take `COc1cccc(-c2ncc3c(n2)n(C)c(=O)n3C(=O)N2CC[C@@H](OC)C2)c1` [Example 47]: the inhibition at 0.1 µM under setting [1] was 16%. Further, the half-maximal inhibitory concentration (IC50) under setting [2] is over 100 nM.

On to `COc1cccc(-c2ncc3c(n2)n(C)c(=O)n3C(=O)N(C)C)c1` [Example 48, 2-(3-Methoxyphenyl)-N,N,9-trimethyl-8-oxo-8,9-dihydro-7H-purine-7-carboxamide], for which, under setting [1], the inhibition at 0.1 µM was 100%. For the same compound, under setting [2], the IC50 was 4 nM.

For `COc1cccc(-c2ncc3c(n2)n(C)c(=O)n3C(=O)N2CCCCC2)c1` [Example 49, 2-(3-Methoxyphenyl)-9-methyl-7-(piperidin-1-ylcarbonyl)-7,9-dihydro-8H-purine-8-one], under setting [1], the inhibition at 0.1 µM came to 99%. Further, the concentration for half-maximal inhibition (IC50) under setting [2] amounted to 6 nM.

As for `Cn1c(=O)n(C(=O)N2CCN(c3ccc(C(F)(F)F)cn3)CC2)c2cnc(-c3ccccc3)nc21` [Example 50, 9-Methyl-2-phenyl-7-({4-[5-(trifluoromethyl)-pyridin-2-yl]piperazin-1-yl}carbonyl)-7,9-dihydro-8H-purine-8-one], the inhibition at 0.1 µM under setting [1] was determined as 98%. In addition, the IC50 under setting [2] worked out at 9 nM.

In the case of `Cn1c(=O)n(C(=O)N2CCN(c3ncccn3)CC2)c2cnc(-c3ccccc3)nc21` [Example 51, 9-Methyl-2-phenyl-7-{[4-(pyrimidin-2-yl)piperazin-1-yl]carbonyl}-7,9-dihydro-8H-purine-8-one], under setting [1], the inhibition at 0.1 µM was 97%. For the same compound, the IC50 under setting [2] worked out at 25 nM.

On to `Cc1cccc(N2CCN(C(=O)n3c(=O)n(C)c4nc(-c5ccccc5)ncc43)CC2)n1` [Example 53, 9-Methyl-7-{[4-(6-methylpyridin-2-yl)piperazin-1-yl]carbonyl}-2-phenyl-7,9-dihydro-8H-purine-8-one], for which the inhibition at 0.1 µM under setting [1] stood at 97%. Moreover, the concentration for half-maximal inhibition (IC50) under setting [2] is 19 nM.

Regarding `COc1cccc(N2CCN(C(=O)n3c(=O)n(C)c4nc(-c5ccccc5)ncc43)CC2)n1` [Example 54, 7-{[4-(6-Methoxypyridin-2-yl)piperazine-1-yl]carbonyl}-9-methyl-2-phenyl-7,9-dihydro-8H-purine-8-one], the inhibition at 0.1 µM under setting [1] was 99%. Under setting [2], the half-maximal inhibitory concentration (IC50) is 24 nM.

As to `Cn1c(=O)n(C(=O)N2CCN(c3nccs3)CC2)c2cnc(-c3ccccc3)nc21` [Example 55, 9-Methyl-2-phenyl-7-{[4-(1,3-thiazol-2-yl)piperazin-1-yl]carbonyl}-7,9-dihydro-8H-purine-8-one], the inhibition at 0.1 µM under setting [1] amounted to 94%. For the same compound, the half-inhibitory concentration (IC50) under setting [2] amounted to 25 nM.

Take `Cc1ccc(N2CCN(C(=O)n3c(=O)n(C)c4nc(-c5ccccc5)ncc43)CC2)nc1` [Example 56, 9-Methyl-7-{[4-(5-methylpyridin-2-yl)piperazin-1-yl]carbonyl}-2-phenyl-7,9-dihydro-8H-purine-8-one]: under setting [1], the inhibition at 0.1 µM came out at 100%. For the same compound, the IC50 under setting [2] was found to be 7 nM.

For `COc1cccc(-c2ncc3c(n2)n(C)c(=O)n3C(=O)N2CCC2)c1` [Example 57, 7-(Azetidin-1-ylcarbonyl)-2-(3-methoxyphenyl)-9-methyl-7,9-dihydro-8H-purine-8-one], under setting [1], the inhibition at 0.1 µM was determined as 101%. The IC50 under setting [2] was 5 nM.

`COc1cccc(-c2ncc3c(n2)n(C)c(=O)n3C(=O)N2CCOCC2)c1` [Example 58]: under setting [1], the inhibition at 0.1 µM was determined as 76%. For the same compound, the half-inhibitory concentration (IC50) under setting [2] amounted to 62 nM.

`COCCN(C)C(=O)n1c(=O)n(C)c2nc(-c3cccc(OC)c3)ncc21` [Example 59, N-(2-Methoxyethyl)-2-(3-methoxyphenyl)-N,9-dimethyl-8-oxo-8,9-dihydro-7H-purine-7-carboxamide]: the inhibition at 0.1 µM under setting [1] worked out at 99%. In addition, the half-inhibitory concentration (IC50) under setting [2] came to 26 nM.

As for `CCN(C)C(=O)n1c(=O)n(C)c2nc(-c3cccc(OC)c3)ncc21` [Example 60, N-Ethyl-2-(3-methoxyphenyl)-N,9-dimethyl-8-oxo-8,9-dihydro-7H-purine-7-carboxamide], the inhibition at 0.1 µM under setting [1] was 99%. For the same compound, the 50% inhibitory concentration (IC50) under setting [2] was found to be 6 nM.

With `COc1cccc(-c2ncc3c(n2)n(C)c(=O)n3C(=O)N2CC[C@@H](F)C2)c1` [Example 62, 7-{[(3R)-3-Fluoropyrrolidin-1-yl]carbonyl}-2-(3-methoxyphenyl)-9-methyl-7,9-dihydro-8H-purine-8-one], the inhibition at 0.1 µM under setting [1] was 90%. Under setting [2], the concentration for half-maximal inhibition (IC50) is 26 nM.

As for `COc1cccc(-c2ncc3c(n2)n(C)c(=O)n3C(=O)N2CC[C@H](F)C2)c1` [Example 63, 7-{[(3S)-3-Fluoropyrrolidin-1-yl]carbonyl}-2-(3-methoxyphenyl)-9-methyl-7,9-dihydro-8H-purine-8-one], the inhibition at 0.1 µM under setting [1] came to 100%. Also, under setting [2], the 50% inhibitory concentration (IC50) was 17 nM.

As for `COc1cccc(-c2ncc3c(n2)n(C)c(=O)n3C(=O)N(C)CCOc2ccccc2)c1` [Example 65, 2-(3-Methoxyphenyl)-N,9-dimethyl-8-oxo-N-(2-phenoxyethyl)-8,9-dihydro-7H-purine-7-carboxamide], the inhibition at 0.1 µM under setting [1] was 98%. For the same compound, the IC50 under setting [2] came out at 3 nM.

Turning to `COc1cccc(-c2ncc3c(n2)n(C)c(=O)n3C(=O)N2CCC(Cc3ccccc3)CC2)c1` [Example 66, 7-[(4-Benzylpiperidin-1-yl)carbonyl]-2-(3-methoxyphenyl)-9-methyl-7,9-dihydro-8H-purine-8-one], the inhibition at 0.1 µM under setting [1] was found to be 93%. The IC50 under setting [2] amounted to 46 nM.

As for `COc1cccc(-c2ncc3c(n2)n(C)c(=O)n3C(=O)N2CCN(CCc3ccccc3)CC2)c1` [Example 67, 2-(3-Methoxyphenyl)-9-methyl-7-{[4-(2-phenylethyl-)piperazin-1-yl]carbonyl}-7,9-dihydro-8H-purine-8-one], the inhibition at 0.1 µM under setting [1] amounted to 97%. In addition, under setting [2], the IC50 stood at 7 nM.

As for `COc1cccc(-c2ncc3c(n2)n(C)c(=O)n3C(=O)N2CCC(CCc3ccc(Cl)cc3)CC2)c1` [Example 68, 7-({4-[2-(4-Chlorophenyl)ethyl]piperidin-1-yl}carbonyl)-2-(3-methoxyphenyl)-9-methyl-7,9-dihydro-8H-purine-8-one], the inhibition at 0.1 µM under setting [1] worked out at 98%. Also, the half-inhibitory concentration (IC50) under setting [2] stood at 6 nM.

In the case of `COc1cccc(-c2ncc3c(n2)n(C)c(=O)n3C(=O)N(C)CCc2ccc(Cl)cc2)c1` [Example 69, N-[2-(4-Chlorophenyl)ethyl]-2-(3-methoxyphenyl)-N,9-dimethyl-8-oxo-8,9-dihydro-7H-purine-7-carboxamide], the inhibition at 0.1 µM stood at 101%. Besides, the IC50 under setting [2] was found to be 2 nM.

For the origin of these results see patent publication US8735406B2, “8-oxodihydropurine derivative” (Dainippon Sumitomo Pharma Co., Ltd., priority 2009, dated 2014).
